Experimental data: US20220146526A1, “METHOD FOR EVALUATING SAMPLE, ANALYSIS METHOD, METHOD FOR DETECTING DEGRADED SAMPLE, MARKER FOR DETECTING DEGRADED BLOOD PLASMA SAMPLE, AND MARKER FOR DETECTING DEGRADED SERUM SAMPLE” (SHIMADZU CORPORATION, priority 2019, published 2022)

Experiments:
Assay type in all cases: physicochemical, human
[1] = LC/MS of blood plasma sample: number of times of freezing and thawing (Table F)
Method in brief: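 Values are detection intensities normalised to 1 for plasma thawed twice, compared against 4, 6 and 10 freeze-thaw cycles. Measured by electrospray LC/MS in MRM mode, formic acid water/acetonitrile mobile phase, column at 40° C. Plasma came from EDTA blood, cooled to 4° C and spun at 3000 rpm for 15 min.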

[2] = LC/MS of blood plasma sample: time from blood collection to centrifugation (Table D); conditions: blood collection to centrifugation
Method in brief: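 Detection intensities are expressed relative to samples centrifuged 15 min after collection (=1), measured by electrospray LC/MS in MRM mode (Discovery HS F5-3, 40 °C, formic acid water/acetonitrile gradient at 0.25 mL/min). EDTA blood from a healthy donor was held at 4 °C, centrifuged at 4 °C, 3000 rpm, 15 min, and plasma frozen.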

[3] = LC/MS of serum sample: number of times of freezing and thawing (Table M); design: key to Rate of increase or decrease: detection intensity relative to 1 at 2 freeze-thaw cycles
Method in brief: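 Values are detection intensities relative to serum thawed twice, versus 4, 6 or 10 freeze-thaw cycles. Serum came from blood spun at room temperature, 3500 rpm for 5 minutes. Analysis: electrospray LC/MS in MRM mode, Discovery HS F5-3 column, 40° C, 0.1% formic acid in water and acetonitrile.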

[4] = GC/MS of serum sample: time from blood collection to centrifugation (Table G); conditions: blood collection to centrifugation
Method in brief: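 Values express detection intensity as a ratio to the sample centrifuged 15 minutes after blood collection (taken as 1). Serum was derivatized by methoxymation and trimethylsilylation, then analysed by electron-ionization GC/MS using multiple reaction monitoring on a BPX5 column ramped from 60 to 330° C.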

[5] = GC/MS of serum sample: number of times of freezing and thawing (Table I); design: key to Rate of increase or decrease / Rate of increase or decrease (first value, increase): detection intensity relative to 2 freeze-thaw cycles = 1; conditions: serum, GC/MS
Method in brief: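 Detection intensities are ratios to the value after two freeze–thaw cycles, which is set as 1, compared against 4, 6 and 10 cycles. Analysis used methoxymation and trimethylsilylation derivatization, then GC/MS with EI ionization and multiple reaction monitoring on a BPX5 column. Serum came from blood held at room temperature and spun at 3500 rpm for 5 min.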

[6] = GC/MS of serum sample: time from centrifugation to isolation (Table H); design: key to Rate of increase or decrease / Rate of increase or decrease (first value, increase): detection intensity relative to 1 at 30 min centrifugation-to-isolation
Method in brief: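 Values are GC/MS (EI, MRM) detection intensities of methoxymated/trimethylsilylated serum, normalised to 1 for the 30-min sample. Serum was isolated 30 min, 1 h or 6 h after room-temperature centrifugation (3500 rpm, 5 min) of blood.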

[7] = LC/MS of serum sample: time from centrifugation to isolation (Table K); design: key to Rate of increase or decrease: detection intensity relative to the 30-minute value set as 1
Method in brief: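 Serum left at room temperature 30 min, 1 h or 6 h between centrifugation (3500 rpm, 5 min, room temperature) and isolation, then frozen and analysed by LC/MS (Discovery HS F5-3 column, 40° C., 0.1% formic acid water/acetonitrile, electrospray, MRM). Values are detection intensity relative to the 30-min condition set to 1.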

[8] = LC/MS of blood plasma sample: time from blood collection to cooling of blood (Table E); design: key to Rate of increase or decrease / Rate of increase or decrease (first value, increase): detection intensity relative to ≤1 min to cooling = 1
[9] = LC/MS of serum sample: time from blood collection to centrifugation (Table J)
Method in brief: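 Detection intensities are expressed relative to 1 for samples centrifuged 15 min after blood collection; centrifugation was at room temperature, 3500 rpm, 5 min. Frozen serum was run by electrospray LC-MS in MRM mode, with 0.1% formic acid water/acetonitrile at 0.25 mL/min on a 40 °C F5 column.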

[10] = detection intensity relative to 1 at 2 times, freezing and thawing 4 times
[11] = detection intensity, freezing and thawing 4 times vs 2 times
[12] = detection intensity relative to 1 at 15 minutes, after 4 hours
[13] = detection intensity, after 4 hours vs 15 minutes

For `Nc1ncnc2c1ncn2[C@@H]1O[C@H](CO)[C@@H](O)[C@H]1O` [Adenosine], the “Rate of increase or decrease” value [1, 10] was 0.58, the Increase or decrease [1, 11] was “Decrease” and the “Rate of increase or decrease” value [2, 12] was 1.39. For the same molecule, the Increase or decrease [2, 13] was “Increase”, the “Rate of increase or decrease” value ([3]; 4 times of freezing and thawing, detection intensity relative to 1 at 2 times) was 0.54 and the “Number of times when compound is affected” value ([3]; serum sample, LC/MS, detection intensity changed by 30% or more vs 2 times of freezing and thawing) was 4 times. For the same molecule, the Increase or decrease ([3]; serum sample, LC/MS, detection intensity vs 2 times of freezing and thawing) was “Decrease”, the “Rate of increase or decrease” value [4, 12] was 0.17 and the Increase or decrease [4, 13] was “Decrease”. The “Rate of increase or decrease” value [5, 10] was 0.36, the Increase or decrease [5, 11] was “Decrease” and the “Rate of increase or decrease” value ([6]; detection intensity relative to 1 at 30 minutes, after 1 hour) was 3.11. The Increase or decrease ([6]; detection intensity, after 1 hour vs 30 minutes) was “Increase”, the “Rate of increase or decrease” value ([7]; after 1 hour from centrifugation to isolation, detection intensity relative to 1 at 30 minutes) was 0.07 and the Increase or decrease ([7]; serum sample, LC/MS, detection intensity vs 30 minutes from centrifugation to isolation) was “Decrease”. For the same molecule, the “Time when compound is affected” value ([7]; serum sample, LC/MS, time from centrifugation to isolation, detection intensity changed by 30% or more vs 30 minutes) was “After 1 hour hours”, the “Rate of increase or decrease” value ([8]; detection intensity relative to 1 at 1 minute or less, blood collection to cooling 5 minutes) was 1.52 and the Increase or decrease ([8]; detection intensity, blood collection to cooling 5 minutes or more vs 1 minute or less) was “Increase”. For the same molecule, the “Rate of increase or decrease” value ([9]; after 4 hours from blood collection to centrifugation, detection intensity relative to 1 at 15 minutes) was 0.29, the Increase or decrease ([9]; serum sample, LC/MS, detection intensity vs 15 minutes from blood collection to centrifugation) was “Decrease” and the “Time when compound is affected” value ([9]; serum sample, LC/MS, time from blood collection to centrifugation, detection intensity changed by 30% or more vs 15 minutes) was “After 4 hours”.
